Type in all cases: biochemical
One test deals with HPK1 (MAP4K1) (Homo sapiens, UniProt Q92918). Nature of the test: HPK1 (MAP4K1) kinase Lantha screen assay. A digest of the protocol: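 Recombinant MAP4K1 preincubated 10 min with compound (6-point dilution, duplicates) in 50 mM HEPES pH 7.5, 10 mM MgCl2, then reacted with Fluorescein-PKC substrate and ATP for 90 min at room temperature. Antibody detection solution stopped reaction; after 60 min, TR-FRET read at ex 340 nm, em 520/495 nm.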

A further test deals with RET (Homo sapiens, UniProt P07949). Nature of the test: RET kinase mobility shift assay. The method, then: (§1) The effect of the compounds on the activity of cKit, RET and AXL kinases were assessed by Mobility shift assay. • 1. 1× kinase base buffer and stop buffer for testing kinases were prepared • 1-1) 1× Kinase base buffer (50 mM HEPES, pH 7.5, 0.01% Triton X-100) • 1-2) Stop buffer (100 mM HEPES, pH 7.5, 0.015% Brij-35, 0.2% Coating Reagent #3, 50 mM EDTA) • 2. Compound and assay plate preparation: the compound was diluted to 50× of the final desired highest inhibitor concentration in reaction by 100% DMSO. 100 μl of this compound dilution was transferred to a well in a 96-well plate. For example, if the highest desired concentration was 5 μM, then 250 μM of compound DMSO solution was prepared in this step. For all compounds, the compound was serially diluted by transferring 10 μl to 70 μl of 100 DMSO in the next well and so forth for a total of 5 concentrations. 100 μl of 100% DMSO was added to two empty wells for no compound control and no enzyme control in the same 96-well plate. The plate was labeled as source plate. The intermediate plate was prepared by transferring 10 μl of compound from source plate to a new 96-well plate as the intermediate plate, adding 90 μl of 1× kinase buffer to each well of the intermediate plate, mixing the compounds in intermediate plate for 10 min on shaker. 5 μl of each well from the 96-well intermediate plate were transferred to a 384-well plate in duplicates. For example, A1 of the 96-well plate was transferred to A1 and A2 of the 384-well plate. A2 of the 96-well plate was transferred to A3 and A4 of the 384-well plate, and so on. • 4. Kinase reaction: The assay plate already contained 5 μl of compound in 10% DMSO. A 2.5× enzyme solution was prepared by adding kinases (cKit, RET, or AXL) and DTT in 1× kinase base buffer. 2.5× enzyme solution was transferred to the assay plate (by adding 10 μl of 2.5× enzyme solution to each well of the 384-well assay plate). The plate was incubated at room temperature for 10 min. 2.5× peptide solution was prepared by adding FAM-labeled peptide, ATP, MgCl2 in the 1× kinase base buffer. 2.5× peptide solution was added to the assay plate by adding 10 μl of 2.5× peptide solution to each well of the 384-well assay plate. The plate was incubated at 28° C. for the specified period of time. 25 μl of stop buffer was added to stop reaction. Data was collected on Caliper.

For another test, the target named is T1, Axl (Homo sapiens, UniProt P30530).
T1 sequence (P30530 26-894): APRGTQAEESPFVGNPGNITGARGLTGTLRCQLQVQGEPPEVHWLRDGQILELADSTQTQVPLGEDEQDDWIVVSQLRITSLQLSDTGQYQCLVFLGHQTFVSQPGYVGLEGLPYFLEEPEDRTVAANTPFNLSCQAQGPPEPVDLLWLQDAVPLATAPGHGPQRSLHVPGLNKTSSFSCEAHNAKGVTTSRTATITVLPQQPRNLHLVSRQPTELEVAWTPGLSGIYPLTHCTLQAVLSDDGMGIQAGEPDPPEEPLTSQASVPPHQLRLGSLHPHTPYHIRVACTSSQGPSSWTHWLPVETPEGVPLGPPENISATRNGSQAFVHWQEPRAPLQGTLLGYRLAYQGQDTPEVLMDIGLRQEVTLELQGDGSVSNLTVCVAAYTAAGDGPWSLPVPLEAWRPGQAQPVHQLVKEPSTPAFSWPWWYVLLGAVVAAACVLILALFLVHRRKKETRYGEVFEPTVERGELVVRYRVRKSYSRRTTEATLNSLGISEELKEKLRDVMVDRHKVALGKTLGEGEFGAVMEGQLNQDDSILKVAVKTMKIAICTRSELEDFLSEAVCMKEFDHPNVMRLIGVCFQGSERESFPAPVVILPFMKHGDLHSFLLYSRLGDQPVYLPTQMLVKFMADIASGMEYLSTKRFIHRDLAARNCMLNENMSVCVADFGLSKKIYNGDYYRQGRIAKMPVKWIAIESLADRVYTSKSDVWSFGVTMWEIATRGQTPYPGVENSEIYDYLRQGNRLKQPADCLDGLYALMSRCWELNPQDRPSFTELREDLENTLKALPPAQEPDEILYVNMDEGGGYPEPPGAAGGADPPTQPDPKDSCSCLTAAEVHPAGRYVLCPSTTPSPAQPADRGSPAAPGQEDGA
The experiment in a line: AXL kinase mobility shift assay. The method, then: as §1

The target of a further test is c-Kit (Homo sapiens, UniProt P10721). The experiment in a line: cKit kinase mobility shift assay. The protocol:
as §1

The structures appear in SMILES notation.

In general, IC50 refers to the point on the concentration scale where inhibition reaches its midpoint.

Sequence of c-Kit (P10721 26-976): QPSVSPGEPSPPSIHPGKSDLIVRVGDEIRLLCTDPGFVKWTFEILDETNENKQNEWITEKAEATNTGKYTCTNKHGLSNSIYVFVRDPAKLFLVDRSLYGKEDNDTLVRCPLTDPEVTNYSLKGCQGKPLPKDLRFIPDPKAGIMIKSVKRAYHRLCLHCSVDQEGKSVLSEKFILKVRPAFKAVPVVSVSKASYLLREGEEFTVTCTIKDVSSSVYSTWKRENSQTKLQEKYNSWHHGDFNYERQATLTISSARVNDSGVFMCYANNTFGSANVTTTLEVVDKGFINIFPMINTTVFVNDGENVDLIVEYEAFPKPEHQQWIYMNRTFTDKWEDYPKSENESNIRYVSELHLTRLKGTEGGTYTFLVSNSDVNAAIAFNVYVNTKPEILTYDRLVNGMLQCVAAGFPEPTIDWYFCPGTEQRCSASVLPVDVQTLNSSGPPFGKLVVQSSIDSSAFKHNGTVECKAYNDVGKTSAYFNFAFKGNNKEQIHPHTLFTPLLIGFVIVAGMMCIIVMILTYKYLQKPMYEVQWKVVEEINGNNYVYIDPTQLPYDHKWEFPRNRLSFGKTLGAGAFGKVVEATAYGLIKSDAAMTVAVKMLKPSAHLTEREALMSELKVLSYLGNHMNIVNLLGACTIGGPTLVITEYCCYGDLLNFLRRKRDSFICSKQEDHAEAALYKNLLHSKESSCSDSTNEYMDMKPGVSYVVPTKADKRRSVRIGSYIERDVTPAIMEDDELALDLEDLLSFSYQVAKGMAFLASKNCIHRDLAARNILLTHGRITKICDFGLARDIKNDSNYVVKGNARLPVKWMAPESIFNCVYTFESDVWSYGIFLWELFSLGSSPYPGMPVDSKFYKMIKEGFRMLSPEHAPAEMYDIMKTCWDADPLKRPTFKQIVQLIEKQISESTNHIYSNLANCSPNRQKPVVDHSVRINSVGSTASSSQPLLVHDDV
Sequence of RET (P07949 29-1114, species assumed): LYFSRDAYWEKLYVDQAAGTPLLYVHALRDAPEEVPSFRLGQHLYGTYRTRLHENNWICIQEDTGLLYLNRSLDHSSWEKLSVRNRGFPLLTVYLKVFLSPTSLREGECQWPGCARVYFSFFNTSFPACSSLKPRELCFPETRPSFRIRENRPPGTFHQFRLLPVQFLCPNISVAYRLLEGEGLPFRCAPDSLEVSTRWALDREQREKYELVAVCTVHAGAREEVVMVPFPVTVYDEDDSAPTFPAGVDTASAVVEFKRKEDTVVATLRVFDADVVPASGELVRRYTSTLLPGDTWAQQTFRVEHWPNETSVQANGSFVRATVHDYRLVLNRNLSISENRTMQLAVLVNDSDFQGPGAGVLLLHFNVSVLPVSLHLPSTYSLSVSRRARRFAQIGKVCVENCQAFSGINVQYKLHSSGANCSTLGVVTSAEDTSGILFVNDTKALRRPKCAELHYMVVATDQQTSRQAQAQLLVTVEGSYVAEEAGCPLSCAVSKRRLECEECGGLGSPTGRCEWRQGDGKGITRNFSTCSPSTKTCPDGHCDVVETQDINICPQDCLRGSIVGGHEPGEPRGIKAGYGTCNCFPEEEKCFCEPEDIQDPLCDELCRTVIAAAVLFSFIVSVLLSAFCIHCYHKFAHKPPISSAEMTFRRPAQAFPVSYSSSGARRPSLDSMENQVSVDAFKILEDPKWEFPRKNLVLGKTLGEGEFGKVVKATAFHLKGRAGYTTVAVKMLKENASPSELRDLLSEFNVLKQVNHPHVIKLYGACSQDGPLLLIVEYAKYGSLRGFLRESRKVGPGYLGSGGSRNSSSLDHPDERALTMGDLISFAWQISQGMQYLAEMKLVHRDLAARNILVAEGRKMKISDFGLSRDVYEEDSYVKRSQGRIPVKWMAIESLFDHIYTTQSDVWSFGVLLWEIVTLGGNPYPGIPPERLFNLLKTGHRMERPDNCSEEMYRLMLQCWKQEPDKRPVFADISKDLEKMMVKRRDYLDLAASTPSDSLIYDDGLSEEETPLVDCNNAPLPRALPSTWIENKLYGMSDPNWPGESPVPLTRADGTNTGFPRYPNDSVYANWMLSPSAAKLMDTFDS
Sequence of HPK1 (MAP4K1) (Q92918 whole entry, species assumed): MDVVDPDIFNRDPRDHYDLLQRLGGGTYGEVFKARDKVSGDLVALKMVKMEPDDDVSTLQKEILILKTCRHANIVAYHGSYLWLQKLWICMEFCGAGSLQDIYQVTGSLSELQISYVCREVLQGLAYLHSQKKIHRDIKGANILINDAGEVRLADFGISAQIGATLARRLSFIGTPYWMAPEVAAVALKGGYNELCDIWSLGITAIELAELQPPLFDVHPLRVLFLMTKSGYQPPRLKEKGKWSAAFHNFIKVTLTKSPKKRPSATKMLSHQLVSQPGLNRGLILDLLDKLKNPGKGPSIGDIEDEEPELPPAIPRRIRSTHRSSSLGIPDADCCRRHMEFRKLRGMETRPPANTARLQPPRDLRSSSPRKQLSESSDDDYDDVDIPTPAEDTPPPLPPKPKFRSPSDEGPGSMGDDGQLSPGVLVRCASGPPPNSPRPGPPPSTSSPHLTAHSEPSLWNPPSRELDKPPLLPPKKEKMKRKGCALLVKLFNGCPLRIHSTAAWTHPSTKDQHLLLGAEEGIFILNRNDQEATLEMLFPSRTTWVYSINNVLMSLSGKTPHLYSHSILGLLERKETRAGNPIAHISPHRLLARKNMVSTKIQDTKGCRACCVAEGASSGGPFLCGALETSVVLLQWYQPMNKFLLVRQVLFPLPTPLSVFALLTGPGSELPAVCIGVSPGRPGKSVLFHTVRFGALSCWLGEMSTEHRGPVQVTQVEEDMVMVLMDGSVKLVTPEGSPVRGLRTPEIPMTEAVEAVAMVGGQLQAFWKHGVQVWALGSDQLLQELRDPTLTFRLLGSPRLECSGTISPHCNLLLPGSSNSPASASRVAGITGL

In the case of `Cc1ccc(NC(=O)c2cc(C(F)(F)F)ccn2)cc1C1=Cc2cnc(NCCF)nc2N2CCN=C12` [Compound 111, N-(3-(2-((2-fluoroethyl)amino)-8,9-dihydroimidazo[1′,2′:1,6]pyrido[2,3-d]pyrimidin-6-yl)-4-methylphenyl)-4-(trifluoromethyl)picolinamide], the IC50 against HPK1 (MAP4K1) was 0.1 to 10 µM; at RET, < 0.1 µM.
With `CNc1ncc2c(n1)N1CCN=C1C(c1cc(NC(=O)c3cc(C(F)(F)F)ccn3)ccc1C)=C2C` [Compound 120, N-(4-methyl-3-(5-methyl-2-(methylamino)-8,9-dihydroimidazo[1′,2′:1,6]pyrido[2,3-d]pyrimidin-6-yl)phenyl)-4-(trifluoromethyl)picolinamide], the IC50 on HPK1 (MAP4K1) and at RET was 0.1 to 10 µM in each case.
On to `CNc1ncc2c(n1)N1CCN=C1C(c1cc(NC(=O)c3cc(C(F)(F)F)ccn3)ccc1F)=C2C` [Compound 121, N-(4-fluoro-3-(5-methyl-2-(methylamino)-8,9-dihydroimidazo[1′,2′:1,6]pyrido[2,3-d]pyrimidin-6-yl)phenyl)-4-(trifluoromethyl)picolinamide], for which the IC50 against HPK1 (MAP4K1) and on RET was 0.1 to 10 µM each time.
For the compound `CNc1nc(C)c2c(n1)N1CCN=C1C(c1cc(NC(=O)c3cc(C(F)(F)F)ccn3)ccc1C)=C2` [Compound 122, N-(4-methyl-3-(4-methyl-2-(methylamino)-8,9-dihydroimidazo[1′,2′:1,6]pyrido[2,3-d]pyrimidin-6-yl)phenyl)-4-(trifluoromethyl)picolinamide], the IC50 on HPK1 (MAP4K1) and at RET was > 10 µM in each case.
As to `CNc1ncc2c(n1)N1C(=NC[C@H]1C)C(c1cc(NC(=O)c3cc(C(F)(F)F)ccn3)ccc1C)=C2` [Compound 129, (R)—N-(4-methyl-3-(9-methyl-2-(methylamino)-8,9-dihydroimidazo[1′,2′:1,6]pyrido[2,3-d]pyrimidin-6-yl)phenyl)-4-(trifluoromethyl)picolinamide], the IC50 at HPK1 (MAP4K1) and at RET was 0.1 to 10 µM in each case.
Turning to `CNc1ncc2c(n1)N1C(=NC[C@@H]1C)C(c1cc(NC(=O)c3cc(C(F)(F)F)ccn3)ccc1C)=C2` [Compound 130, (S)—N-(4-methyl-3-(9-methyl-2-(methylamino)-8,9-dihydroimidazo[1′,2′:1,6]pyrido[2,3-d]pyrimidin-6-yl)phenyl)-4-(trifluoromethyl)picolinamide], the IC50 at HPK1 (MAP4K1) and at RET was < 0.1 µM throughout.
`CNc1ncc2c(n1)N1CCN=C1C(c1cc(NC(=O)c3cc(C(F)(F)F)ccn3)ccc1F)=C2` [Compound 135, N-(4-fluoro-3-(2-(methylamino)-8,9-dihydroimidazo[1′,2′:1,6]pyrido[2,3-d]pyrimidin-6-yl)phenyl)-4-(trifluoromethyl)picolinamide]: the IC50 was 0.1 to 10 µM on HPK1 (MAP4K1) and < 0.1 µM on RET.
Turning to `CNc1ncc2c(n1)N1CCN=C1C(c1cc(NC(=O)c3cn(C(C)C)c(=O)n(-c4ccc(F)cc4)c3=O)ccc1C)=C2` [Compound 193, 3-(4-fluorophenyl)-1-isopropyl-N-(4-methyl-3-(2-(methylamino)-8,9-dihydroimidazo[1′,2′:1,6]pyrido[2,3-d]pyrimidin-6-yl)phenyl)-2,4-dioxo-1,2,3,4-tetrahydropyrimidine-5-carboxamide], the IC50 at HPK1 (MAP4K1) is 0.1 to 10 µM; on Axl, > 10 µM.
On the same counts, the results for `CNc1ncc2c(n1)N1CCN=C1C(c1ccc(C(=O)Nc3cc(C(F)(F)F)ccn3)cc1C)=C2` [Compound 276, 3-methyl-4-(2-(methylamino)-8,9-dihydroimidazo[1′,2′:1,6]pyrido[2,3-d]pyrimidin-6-yl)-N-(4-(trifluoromethyl)pyridin-2-yl)benzamide] are 0.1 to 10 µM and > 10 µM.
Take `CNc1ncc2c(n1)N1CCN=C1C(c1cc(NS(=O)(=O)c3cccc(C(F)(F)F)c3)c(F)cc1C)=C2` [Compound 285, N-(2-fluoro-4-methyl-5-(2-(methylamino)-8,9-dihydroimidazo[1′,2′:1,6]pyrido[2,3-d]pyrimidin-6-yl)phenyl)-3-(trifluoromethyl)benzenesulfonamide]: the IC50 at c-Kit and at Axl was > 10 µM each time.
With `CNc1ncc2c(n1)N1CCN=C1C(c1c(C)ccc(NS(=O)(=O)c3ccccc3Cl)c1F)=C2` [Compound 287, 2-chloro-N-(2-fluoro-4-methyl-3-(2-(methylamino)-8,9-dihydroimidazo[1′,2′:1,6]pyrido[2,3-d]pyrimidin-6-yl)phenyl)benzenesulfonamide], the IC50 at c-Kit is 0.1 to 10 µM; on Axl it was < 0.1 µM.
`CNc1ncc2c(n1)N1CCN=C1C(c1cc(NS(=O)(=O)c3ccccc3F)ccc1C)=C2` [Compound 289, 2-fluoro-N-(4-methyl-3-(2-(methylamino)-8,9-dihydroimidazo[1′,2′:1,6]pyrido[2,3-d]pyrimidin-6-yl)phenyl)benzenesulfonamide]: the IC50 at c-Kit and on Axl was > 10 µM throughout.
As to `CNc1ncc2c(n1)N1CCN=C1C(c1cc(NC(=O)Nc3cccc(C(F)(F)F)c3)c(F)cc1C)=C2` [Compound 330, 1-(2-fluoro-4-methyl-5-(2-(methylamino)-8,9-dihydroimidazo[1′,2′:1,6]pyrido[2,3-d]pyrimidin-6-yl)phenyl)-3-(3-(trifluoromethyl)phenyl)urea], the values for the IC50 against HPK1 (MAP4K1), on c-Kit and at Axl were 0.1 to 10 µM, < 0.1 µM and > 10 µM, respectively.
Regarding `CNc1ncc2c(n1)N1CCN=C1C(c1cc(NC(=O)Nc3cc(C(F)(F)F)ccc3F)c(F)cc1C)=C2` [Compound 333, 1-(2-fluoro-4-methyl-5-(2-(methylamino)-8,9-dihydroimidazo[1′,2′:1,6]pyrido[2,3-d]pyrimidin-6-yl)phenyl)-3-(2-fluoro-5-(trifluoromethyl)phenyl)urea], the IC50 on c-Kit is < 0.1 µM; at Axl, > 10 µM.
In the same order, the values of `CNc1ncc2c(n1)N1CCN=C1C(c1cc(NC(=O)Nc3cc(C(F)(F)F)ccc3Cl)c(F)cc1C)=C2` [Compound 335, 1-(2-chloro-5-(trifluoromethyl)phenyl)-3-(2-fluoro-4-methyl-5-(2-(methylamino)-8,9-dihydroimidazo[1′,2′:1,6]pyrido[2,3-d]pyrimidin-6-yl)phenyl)urea] are < 0.1 µM and > 10 µM.
As for `CNc1ncc2c(n1)N1CCN=C1C(c1c(C)ccc(NC(=O)Nc3ccccc3Cl)c1F)=C2` [Compound 336, 1-(2-chlorophenyl)-3-(2-fluoro-4-methyl-3-(2-(methylamino)-8,9-dihydroimidazo[1′,2′:1,6]pyrido[2,3-d]pyrimidin-6-yl)phenyl)urea], the IC50 on c-Kit was 0.1 to 10 µM; at Axl, > 10 µM.

The record behind these values is patent US20230303570A1, “KINASE INHIBITORS AND USES THEREOF” (ABM Therapeutics Corporation, priority 2020, published 2023).
